# Earlier results in patent publication US5547866A (priority 1994, dated 1996).
# System: breast, lung and other cancers
# Conditions: background
structure (smiles),measurement,value
CC(=O)O[C@H]1C(=O)[C@@]2(C)[C@H]([C@H](OC(=O)c3ccccc3)[C@]3(O)C[C@H](OC(=O)[C@H](O)[C@@H](NC(=O)c4ccccc4)c4ccccc4)C(C)=C1C3(C)C)[C@]1(OC(C)=O)CO[C@@H]1C[C@@H]2O [taxol],"activity against breast, lung and other cancers","shown activity against breast, lung and other cancers"
